{"source": "patent US9492546B2", "about": "“Use of bethanechol for treatment of Xerostomia” (Acacia Pharma Limited, priority 2011, dated 2016)", "key": {"[1]": {"tested_on": "rabbits", "assay": "Blood pressure and heart rate in anaesthetised rabbits (separate experiment)", "type": "in vivo, rabbit", "settings": "intravenous, dose-related at 30, 100 and 300 μg/kg", "excerpt": "In a further, separate experiment, formulation 14C and its matching placebo were given to 3 anaesthetised rabbits in which blood pressure, via an indwelling cannula in the carotid artery, was monitored, along with heart rate."}, "[2]": {"tested_on": "New Zealand White rabbits", "assay": "Heart rate in anaesthetised rabbits, topical formulations versus IV bethanechol", "type": "in vivo, rabbit", "settings": "range of doses", "excerpt": "More specifically, adult male New Zealand White rabbits, of approximate body weight 2.0 to 3 kg, were allocated in groups of three to be treated with formulations of bethanechol given in Table 1, designated 2, 6, 9 and 14C, along with each of their matching placebos. Animals were anaesthetised with urethane, administered IP, and heart rate was monitored via ECG leads. They were placed in the prone position after being anaesthetised (this inhibits the drug from entering the GI tract). Salivation was measured by inserting pre-weighed cotton wool balls into the oral cavity, removing after five or ten minutes and weighing. The difference in weight provided an estimate of salivary flow.\nAt the end of the experiment, one animal from each group was given bethanechol intravenously at a range of doses, in order to produce a dose-response curve for heart rate. This was compared to the effect of the active formulations, when given topically, on heart rate."}, "[3]": {"settings": "cited from earlier work"}, "[4]": {"settings": "cited from earlier work", "remark": "listed apart in the source"}, "[5]": {"tested_on": "patients with xerostomia", "settings": "administered orally, small number of clinical studies; cited from earlier work"}, "[6]": {"tested_on": "healthy volunteers", "assay": "Phase 1 study, formulation applied topically to the oral mucosa", "type": "in vivo, human", "settings": "oral and oromucosal", "protocol": "In a Phase 1 study involving four healthy volunteers, Formulation 14C applied topically to the oral mucosa at doses up to 20 mg, kept in situ for two minutes.\nThis local absorption is likely to deliver enough bethanechol to the minor salivary glands, numbering in the hundreds to thousands and located immediately below the oral mucosa, to stimulate them to produce mucin-rich saliva which is disproportionately important for ensuring a comfortable month feel. When added to the salivary stimulation achieved by oral ingestion of bethanechol, it may reasonably be concluded that the formulation can produce better relief from xerostomia, with fewer side-effects, than purely systemic dosing of bethanechol."}}}
{"smiles": "CC(C[N+](C)(C)C)OC(N)=O", "note": "(centres unmarked) [bethanechol chloride, Bethanechol chloride]", "values": [{"measurement": "Effect on blood pressure", "setting": "[1]", "result": "reduced"}, {"measurement": "Effect on heart rate", "setting": "[1]", "result": "reduced"}, {"measurement": "Effect on heart rate", "setting": "[2]", "result": "marked and dose-dependent bradycardia"}, {"measurement": "Penetration into the CNS", "setting": "[3]; at therapeutic doses", "result": "does not significantly penetrate into the CNS"}, {"measurement": "Absorption from the GI tract", "setting": "[3]; in vivo", "result": "only poorly absorbed"}, {"measurement": "aqueous solubility", "setting": "[4]", "result": "high"}, {"measurement": "Salivary flow", "setting": "[5]", "result": "increase salivary flow"}, {"measurement": "Pharmacokinetics (linearity)", "setting": "[6]", "result": "linear"}]}
